# Experimental data: paper PMC12120022, “Discovery and chemical optimisation of a potent, Bi-cyclic antimicrobial inhibitor of Escherichia coli PBP3” (Communications Biology, 2025)
# *1 amine or outer side, *2 acyl side, *3 side chain or, on linkers, in order; H or OH if unused. Where a SMILES comes first, the peptide text is derived from it. Bridges are numbered along the chain shown (N, C = ends). [ ]: non-standard residue; d: D form. TATA = O=C(CC[*:1])N1CN(C(=O)CC[*:2])CN(C(=O)CC[*:3])C1; Trp(6-Cl) = N[C@@H](Cc1c[nH]c2cc(Cl)ccc12)C(=O)O; hArg = N=C(N)NCCCC[C@H](N)C(=O)O
# Columns and labels:
# Mouse blood stability = type: in vitro ADME, CD-1 mice; conditions: CD-1, mouse, whole blood (EDTA as anticoagulant), 37 °C, SAR peptides, read-out: Blood stability (t1/2) (converted)
# Method: Stability assays were performed using freshly collected matrices from CD-1 mice, with anticoagulant as stated per dataset. Compound stocks in DMSO were tested at 5 μM final concentration (0.5% (v/v) DMSO). Compounds were incubated in blood or plasma at 37 °C for 24 h, with sampling at 0, 1, 2, 4, 6 and 24 h. Samples were prepared via protein precipitation using organic solvent containing internal standard, and analyzed by LC-MS/MS. Compound remaining was quantified based on the ratio of analyte to internal standard, and the half-life (t1/2) was calculated from a log linear plot of % remaining versus time.
# E. coli GKCW101 (WT) = conditions: caMHB; biological replicates or their range
# Method: (§1) To evaluate the engagement of EcPBP3 by a bicyclic peptide in whole cells lacking the outer membrane permeability barrier, peptides were screened in ‘hyperporinated’ E. coli strains in which a constitutively open FhuA pore (FhuAΔC/Δ4L, lacking N-terminal cork domain and external loops) was chromosomally expressed under control of an arabinose-inducible promoter.
# (§2) Minimal inhibition concentration (MIC) assays were performed in accordance with CLSI standards, using cation-adjusted Mueller Hinton broth (caMHB; Sigma Aldrich) unless otherwise specified. Induction of pore expression in hyperporinated strains E. coli GKCW101 and GKCW102 was performed by addition of 0.1% (w/v) L-arabinose to cultures at OD600 ~ 0.3, with caMHB as the culture medium.
# E. coli GKCW102 (EcPore) = conditions: caMHB; biological replicates or their range
# Method: as §1, §2
# [1] = test system: Klebsiella pneumoniae B454; experiment: MIC; type: cell-based; conditions: caMHB; replicates listed
# Method: as §2
# [2] = test system: Proteus mirabilis ATCC 43071; experiment: MIC; type: cell-based; conditions: caMHB; replicates listed
# Method: as §2
# [3] = test system: Citrobacter freundii AR0116; experiment: MIC; type: cell-based; conditions: caMHB; replicates listed
# Method: as §2
# [4] = test system: Pseudomonas aeruginosa NCTC 13437; experiment: MIC; type: cell-based; conditions: caMHB; replicates listed
# Method: as §2
# [5] = test system: Citrobacter freundii B121; experiment: MIC; type: cell-based; conditions: caMHB; replicates listed
# Method: as §2
# [6] = test system: Enterobacter cloacae B173; experiment: MIC; type: cell-based; conditions: caMHB; replicates listed
# Method: as §2
# [7] = test system: Enterobacter cloacae AR0032; experiment: MIC; type: cell-based; conditions: caMHB; replicates listed
# Method: as §2
# [8] = test system: Acinetobacter baumannii NCTC 12156; experiment: MIC; type: cell-based; conditions: caMHB; replicates listed
# Method: as §2
# [9] = test system: Enterobacter cloacae AR0038; experiment: MIC; type: cell-based; conditions: caMHB; replicates listed
# Method: as §2
# [10] = test system: Escherichia coli NCTC 13441; experiment: MIC; type: cell-based; conditions: caMHB; replicates listed
# Method: as §2
# Proteus mirabilis AR159 = experiment: MIC; type: cell-based; conditions: caMHB; replicates listed
# Method: as §2
# Escherichia coli UTI89 = experiment: MIC; type: cell-based; conditions: caMHB; replicates listed
# Method: as §2
# [11] = test system: Acinetobacter baumannii AR0275; experiment: MIC; type: cell-based; conditions: caMHB; replicates listed
# Method: as §2
# [12] = test system: Escherichia coli ATCC BAA-2469; experiment: MIC; type: cell-based; conditions: caMHB; replicates listed
# Method: as §2
# [13] = test system: Enterobacter cloacae KPC114; experiment: MIC; type: cell-based; conditions: caMHB; replicates listed
# Method: as §2
# [14] = test system: Klebsiella pneumoniae ATCC 700603; experiment: MIC; type: cell-based; conditions: caMHB; replicates listed
# Method: as §2
# [15] = test system: Pseudomonas aeruginosa ATCC 27853; experiment: MIC; type: cell-based; conditions: caMHB; replicates listed
# Method: as §2
# [16] = test system: Klebsiella pneumoniae ATCC 43816; experiment: MIC; type: cell-based; conditions: caMHB; replicates listed
# Method: as §2
# E. coli ATCC 25922 = experiment: MIC, wild-type strain; type: cell-based, Escherichia coli
# Method: as §2
compound,measurement,setting,value
"CC(=O)N[C@H]1CSCCC(=O)N2CN3CN(C2)C(=O)CCSC[C@H](NC(=O)[C@H](CCCCNC(=N)N)NC(=O)[C@@H]2CCCN2C(=O)[C@H](Cc2ccccc2)NC(=O)[C@H](CO)NC1=O)C(=O)N1CCC[C@H]1C(=O)N[C@@H](Cc1c[nH]c2ccccc12)C(=O)N[C@@H](C(C)C)C(=O)N[C@@H](CCC(=O)O)C(=O)NCC(=O)N[C@H](C(=O)N[C@@H](C)C(N)=O)CSCCC3=O [Peptide 74] (HELM PEPTIDE1{[ac].C.S.F.P.[N=C(N)NCCCC[C@H](N[*:1])C(=O)[*:2]].C.P.W.V.E.G.C.A.[am]}|CHEM1{[O=C(CC[*:1])N1CN(C(=O)CC[*:2])CN(C(=O)CC[*:3])C1]}$PEPTIDE1,CHEM1,2:R3-1:R1|PEPTIDE1,CHEM1,7:R3-1:R2|PEPTIDE1,CHEM1,13:R3-1:R3$$$V2.0)",half-life at 5 μM,Mouse blood stability,17.7 h
"CC(=O)N[C@@H](C)C(=O)N[C@H]1CSCCC(=O)N2CN3CN(C2)C(=O)CCSC[C@H](NC(=O)[C@H](CCCCNC(=N)N)NC(=O)[C@@H]2CCCN2C(=O)[C@H](Cc2ccccc2)NC(=O)[C@H](CO)NC1=O)C(=O)N1CCC[C@H]1C(=O)N[C@@H](Cc1c[nH]c2cc(Cl)ccc12)C(=O)N[C@@H](C(C)C)C(=O)N[C@@H](CCC(=O)O)C(=O)NCC(=O)N[C@H](C(=O)N[C@@H](C)C(N)=O)CSCCC3=O [Peptide 75, [-Ac]ACSFP[HArg]CP[6ClTrp]VEGCA] (Ac-ACSFP[hArg]CP[Trp(6-Cl)]VEGCA-NH2; linker 2-7-13 via TATA)",half-life at 5 μM,Mouse blood stability,11.4 h
ACSFPKCPWVEGCA* [Conjugate 2],MIC E. coli GKCW101 (WT),E. coli GKCW101 (WT),4 to 8 µg/mL
same,MIC E. coli GKCW102 (EcPore),E. coli GKCW102 (EcPore),0.5 to 1 µg/mL
same,MIC Klebsiella pneumoniae B454,[1],"16,32 μg mL-1"
same,MIC Proteus mirabilis ATCC 43071,[2],> 64 µg/mL
same,MIC Citrobacter freundii AR0116,[3],8 µg/mL
same,MIC Pseudomonas aeruginosa NCTC 13437,[4],> 64 µg/mL
same,MIC Citrobacter freundii B121,[5],8 µg/mL
same,MIC Enterobacter cloacae B173,[6],16 µg/mL
same,MIC Enterobacter cloacae AR0032,[7],4 µg/mL
same,MIC Acinetobacter baumannii NCTC 12156,[8],> 64 µg/mL
same,MIC Enterobacter cloacae AR0038,[9],8 µg/mL
same,MIC Escherichia coli NCTC 13441,[10],"4,8 μg mL-1"
same,MIC Proteus mirabilis AR159,Proteus mirabilis AR159,> 64 µg/mL
same,MIC Escherichia coli UTI89,Escherichia coli UTI89,8 µg/mL
same,MIC Acinetobacter baumannii AR0275,[11],> 64 µg/mL
same,MIC Escherichia coli ATCC BAA-2469,[12],"8,8 μg mL-1"
same,MIC Enterobacter cloacae KPC114,[13],8 µg/mL
same,MIC Klebsiella pneumoniae ATCC 700603,[14],16 µg/mL
same,MIC Pseudomonas aeruginosa ATCC 27853,[15],> 64 µg/mL
same,MIC Klebsiella pneumoniae ATCC 43816,[16],"8,16 μg mL-1"
same,MIC E. coli ATCC 25922,"E. coli ATCC 25922; MHB, biological replicates or their range",1 to 2 µg/mL
same,MIC Escherichia coli ATCC 25922,"E. coli ATCC 25922; caMHB, replicates listed, number in brackets","2,8 μg mL-1"
